Results: patent US9783536B2, “Nitrogen-containing heterocyclic compound or salt thereof” (FUJIFILM Corporation, priority 2013, dated 2017)
Structures can show the parent of a compound that is named as a salt. Where two headings read alike, the source gives them in different places.

How the values were obtained:
Format in all cases: biochemical
[1] = biological target: T1, human PI3Kα protein (Homo sapiens, UniProt P42336); experiment: PI3Kα enzyme assay (ADP-Glo); settings: read-out: PI3Kα enzyme inhibitory activity
T1 construct: purchased Carna Biosciences, Inc; host or cells: baculovirus expression system
T1 sequence (P42336 whole entry): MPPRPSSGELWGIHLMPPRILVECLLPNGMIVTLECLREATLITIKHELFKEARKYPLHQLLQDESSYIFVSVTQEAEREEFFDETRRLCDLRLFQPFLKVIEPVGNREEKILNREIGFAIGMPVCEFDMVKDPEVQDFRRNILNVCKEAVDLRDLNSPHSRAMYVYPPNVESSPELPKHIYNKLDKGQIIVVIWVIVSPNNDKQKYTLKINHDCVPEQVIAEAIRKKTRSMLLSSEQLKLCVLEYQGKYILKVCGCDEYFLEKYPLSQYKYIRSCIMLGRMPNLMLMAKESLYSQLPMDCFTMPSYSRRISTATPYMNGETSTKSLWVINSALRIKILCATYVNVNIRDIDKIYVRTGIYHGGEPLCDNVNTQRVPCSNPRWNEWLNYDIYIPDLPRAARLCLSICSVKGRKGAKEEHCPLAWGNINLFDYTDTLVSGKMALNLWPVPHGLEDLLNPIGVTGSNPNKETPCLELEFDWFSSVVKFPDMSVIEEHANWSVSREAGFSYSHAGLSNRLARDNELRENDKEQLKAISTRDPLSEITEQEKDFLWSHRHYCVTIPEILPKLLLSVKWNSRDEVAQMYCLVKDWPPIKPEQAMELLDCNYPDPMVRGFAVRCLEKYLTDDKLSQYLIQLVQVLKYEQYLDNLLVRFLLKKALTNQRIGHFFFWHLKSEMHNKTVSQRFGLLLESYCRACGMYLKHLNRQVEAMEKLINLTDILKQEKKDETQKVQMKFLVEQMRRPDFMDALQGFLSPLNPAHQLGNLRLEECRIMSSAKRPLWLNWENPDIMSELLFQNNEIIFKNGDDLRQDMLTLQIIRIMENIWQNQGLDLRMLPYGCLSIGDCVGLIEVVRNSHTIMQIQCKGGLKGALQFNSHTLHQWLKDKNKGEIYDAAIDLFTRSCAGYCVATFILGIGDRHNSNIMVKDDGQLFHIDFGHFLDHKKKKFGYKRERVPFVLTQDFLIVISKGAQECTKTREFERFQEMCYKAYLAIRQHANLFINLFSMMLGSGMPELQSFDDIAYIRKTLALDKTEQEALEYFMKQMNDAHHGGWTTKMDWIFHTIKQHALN
T1 sequence (P27986 whole entry partner): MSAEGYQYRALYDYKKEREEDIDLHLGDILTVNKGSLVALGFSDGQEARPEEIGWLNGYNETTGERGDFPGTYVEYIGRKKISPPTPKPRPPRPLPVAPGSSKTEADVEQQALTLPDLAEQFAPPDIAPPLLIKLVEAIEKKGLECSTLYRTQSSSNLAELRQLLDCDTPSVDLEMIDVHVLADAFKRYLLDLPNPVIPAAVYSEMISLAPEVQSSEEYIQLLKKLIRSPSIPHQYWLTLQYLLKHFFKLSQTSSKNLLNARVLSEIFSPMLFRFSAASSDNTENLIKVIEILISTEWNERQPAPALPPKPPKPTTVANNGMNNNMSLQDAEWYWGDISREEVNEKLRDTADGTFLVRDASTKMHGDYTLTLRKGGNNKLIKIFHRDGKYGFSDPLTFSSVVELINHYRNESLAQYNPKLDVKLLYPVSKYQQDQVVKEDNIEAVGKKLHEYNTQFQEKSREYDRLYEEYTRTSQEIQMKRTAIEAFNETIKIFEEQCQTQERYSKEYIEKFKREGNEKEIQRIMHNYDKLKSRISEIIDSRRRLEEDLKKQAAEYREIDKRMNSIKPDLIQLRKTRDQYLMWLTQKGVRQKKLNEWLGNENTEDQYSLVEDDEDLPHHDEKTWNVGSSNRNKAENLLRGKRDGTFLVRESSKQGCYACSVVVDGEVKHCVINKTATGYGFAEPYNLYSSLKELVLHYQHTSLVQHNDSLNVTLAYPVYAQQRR
Method in brief: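 Biotinylated human PI3Kα (baculovirus-expressed, 4.5 nmol/L) pre-incubated 15 min with compound in Tris-HCl pH 7.5, MgCl2, BSA; reaction 60 min at 25° C with 50 μmol/L PIP2 and 100 μmol/L ATP final. ADP quantified by ADP-Glo luminescence; IC50 calculated.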

[2] = biological target: T2, GST fusion human ERK2 protein (Homo sapiens, UniProt P28482); experiment: ERK2 enzyme assay (1); settings: read-out: ERK2 enzyme inhibitory activity (1)
T2 construct: purchased Carna Biosciences, Inc; host or cells: E. coli expression system
T2 sequence (P28482 whole entry, the tested form may be a part): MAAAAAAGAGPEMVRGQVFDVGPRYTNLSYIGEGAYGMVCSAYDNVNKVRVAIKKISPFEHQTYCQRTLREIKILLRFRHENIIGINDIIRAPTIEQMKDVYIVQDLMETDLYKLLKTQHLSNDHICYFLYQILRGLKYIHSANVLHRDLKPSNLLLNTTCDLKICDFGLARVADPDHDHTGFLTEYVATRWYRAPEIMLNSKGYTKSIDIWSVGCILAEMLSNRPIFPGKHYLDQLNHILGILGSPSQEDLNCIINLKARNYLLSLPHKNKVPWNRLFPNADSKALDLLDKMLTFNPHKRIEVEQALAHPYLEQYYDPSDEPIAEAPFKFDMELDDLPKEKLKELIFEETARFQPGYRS
Method in brief: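 Enzyme (2.5 nmol/L, E. coli-expressed) preincubated with compound 15 min at room temperature in HEPES/MgCl2/DTT/Brij35 buffer, pH 7.5; reaction with 4.25 μmol/L FL-Peptide 8 and 43.1 μmol/L ATP for 120 min at 25 °C. Phosphorylated peptide fraction quantified by mobility-shift separation after EDTA stop; IC50 calculated.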

[3] = biological target: T2, GST fusion human ERK2 protein; experiment: ERK2 enzyme assay (2); settings: read-out: ERK2 enzyme inhibitory activity (2)
Method in brief: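 GST-tagged human ERK2 expressed in E. coli (1.25 nmol/L) was preincubated with compound for 15 min at room temperature in pH 7.5 Hepes buffer with MgCl2, DTT and Brij35. Reaction with FL-Peptide 8 (final 4.25 μmol/L) and ATP (final 1 mmol/L) ran 120 min at 25 °C; EDTA stopped it, and phosphorylated peptide was quantified by mobility-shift separation to derive IC50.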

[4] = 4.5 nmol/L PI3Kα, PIP2 50 μmol/L, ATP 100 μmol/L
[5] = 2.5 nmol/L ERK2, ATP 43.1 μmol/L

Row | Compound | IC50 [1] [nM] | IC50 ([2]; ERK2 enzyme assay (1)) [nM] | IC50 ([3]; ERK2 enzyme assay (2)) [nM] | IC50 [1, 4] [nM] | IC50 [2, 5] [nM] | IC50 ([3]; 1.25 nmol/L ERK2, ATP 1 mmol/L) [nM]
1 | c1cncc(Cc2nnc(Nc3ccc4ncc(-c5cnn(CCCN6CCCC6)c5)cc4n3)s2)c1 [Example 0262] | < 1000 | < 1000 | < 1000 |  |  | 
2 | Cn1cc(-c2cnc3ccc(Nc4nnc(C5CCCC5)s4)nc3c2)c(-c2ccccc2)n1 [Example 0129, 5-cyclopentyl-N-(7-(1-methyl-3-phenyl-1H-pyrazol-4-yl)-1,5-naphthyridin-2-yl)-1,3,4-thiadiazole-2-amine] |  |  |  | < 1000 | < 1000 | 1000 to 10000
3 | c1cc(CN2CCOCC2)ncc1Nc1cnc2ccc(Nc3nnc(C4CCCC4)s3)nc2c1 [Example 0085] |  |  |  | < 1000 | < 1000 | < 1000
4 | CCOc1nc2ccc(Nc3nnc(C4CCCC4)s3)nc2cc1-c1cnn(C)c1 [Example 0357, 5-Cyclopentyl-N-(6-ethoxy-7-(1-methyl-1H-pyrazol-4-yl)-1,5-naphthyridin-2-yl)-1,3,4-thiadiazole-2-amine] |  | 1000 to 10000 | 1000 to 10000 |  |  | 
5 | c1nc2ccc(Nc3nnc(C4CCCC4)s3)nc2cc1-c1cnn(CCCN2CCCC2)c1 [Example 0320] | < 1000 | < 1000 | < 1000 |  |  | 
6 | CC(C)c1nnc(Nc2ccc3ncc(-c4cnn(CCCN5CCOCC5)c4)cc3n2)s1 [Example 0118] |  |  |  | < 1000 | < 1000 | < 1000
7 | COc1nn(C)cc1-c1cnc2ccc(Nc3nnc(C4CCCC4)s3)nc2c1 [Example 0114] |  |  |  | < 1000 | < 1000 | < 1000
8 | c1ncc(OCCCN2CCCC2)cc1Nc1cnc2ccc(Nc3nnc(C4CCCC4)s3)nc2c1 [Example 0087] |  |  |  | < 1000 | < 1000 | < 1000
9 | c1nc2ccc(Nc3nnc(CC4CCOC4)s3)nc2cc1-c1cnn(CCCN2CCCC2)c1 (stereo not shown) [Example 0267] | < 1000 | < 1000 | < 1000 |  |  | 
10 | CC(C)c1cnnc(Nc2ccc3ncc(-c4cnn(CCCN5CCN(C)CC5)c4)cc3n2)c1 [Example 0021, N-(5-isopropylpyridazin-3-yl)-7-(1-(3-(4-methylpiperazin-1-yl)propyl)-1H-pyrazol-4-yl)-1,5-naphthyridine-2-amine] |  |  |  | < 1000 | < 1000 | < 1000
11 | COCc1nn(C)cc1-c1cnc2ccc(Nc3nnc(C(C)C)s3)nc2c1 [Example 0142] |  |  |  | < 1000 | < 1000 | < 1000
12 | Cn1cc(-c2cnc3ccc(Nc4nnc(C(C)(C)C)s4)nc3c2)cn1 [Example 0162] |  |  |  | < 1000 | < 1000 | < 1000
13 | Cn1cc(-c2cnc3ccc(Nc4nnc(C5CCCCC5)s4)nc3c2)cn1 [Example 0217, 5-Cyclohexyl-N-(7-(1-methyl-1H-pyrazol-4-yl)-1,5-naphthyridin-2-yl)-1,3,4-thiadiazole-2-amine] |  | < 1000 | < 1000 |  |  | 
14 | CCCc1nnc(Nc2ccc3ncc(-c4cnn(C)c4)cc3n2)s1 [Example 0169, N-(7-(1-methyl-1H-pyrazol-4-yl)-1,5-naphthyridin-2-yl)-5-propyl-1,3,4-thiadiazole-2-amine] |  |  |  |  | < 1000 | < 1000
15 | c1cnc2[nH]cc(-c3cnc4ccc(Nc5nnc(C6CCCC6)s5)nc4c3)c2c1 [Example 0111] |  |  |  |  | < 1000 | < 1000
16 | Cn1cc(-c2cnc3ccc(Nc4nnc(C5CCCC5)s4)nc3c2)c2cccnc21 [Example 0113] |  |  |  |  | < 1000 | < 1000
17 | Cn1cc(-c2cc3nc(Nc4nnc(C5CCCC5)s4)ccc3nc2Cl)cn1 [Example 0349, N-(6-chloro-7-(1-methyl-1H-pyrazol-4-yl)-1,5-naphthyridin-2-yl)-5-cyclopentyl-1,3,4-thiadiazole-2-amine] |  | < 1000 | 1000 to 10000 |  |  | 
18 | CC(C)c1cnnc(Nc2ccc3ncc(-c4cnn(Cc5ccncc5)c4)cc3n2)c1 [Example 0381] | < 1000 | < 1000 |  |  |  | 
19 | CC(=O)N1CCN(c2cnc3ccc(Nc4nnc(C5CCCC5)s4)nc3c2)CC1 [Example 0048] |  |  |  | 1000 to 10000 | < 1000 | 
20 | O=S(=O)(Nc1ccccc1)c1nnc(Nc2ccc3ncc(-c4cnn(CCN5CCNCC5)c4)cc3n2)s1 [Example 0181, N-phenyl-5-((7-(1-(2-(piperazin-1-yl)ethyl)-1H-pyrazol-4-yl)-1,5-naphthyridin-2-yl)amino)-1,3,4-thiadiazole-2-sulfonamide hydrochloride] |  |  |  | < 1000 | < 1000 | 

Row | Compound | IC50 [1] [nM] | IC50 ([2]; ERK2 enzyme assay (1)) [nM] | IC50 ([3]; ERK2 enzyme assay (2)) [nM] | IC50 [1, 4] [nM] | IC50 [2, 5] [nM] | IC50 ([3]; 1.25 nmol/L ERK2, ATP 1 mmol/L) [nM]
21 | Cc1nn(CCCN2CCCC2)cc1-c1cnc2ccc(Nc3cc(C(C)C)cnn3)nc2c1 [Example 0156, N-(5-isopropylpyridazin-3-yl)-7-(3-methyl-1-(3-(pyrrolidin-1-yl)propyl)-1H-pyrazol-4-yl)-1,5-naphthyridine-2-amine] |  |  |  | < 1000 | < 1000 | 
22 | c1nc2ccc(Nc3nnc(C4CCCO4)s3)nc2cc1-c1cnn(C2CCNCC2)c1 (stereo not shown) [Example 0324, N-(7-(1-(piperidin-4-yl)-1H-pyrazol-4-yl)-1,5-naphthyridin-2-yl)-5-(tetrahydrofuran-2-yl)-1,3,4-thiadiazole-2-amine] | < 1000 | < 1000 |  |  |  | 
23 | CC(C)c1nnc(Nc2ccc3nccc(Nc4cccnc4)c3n2)s1 [Example 0006] |  |  |  | < 1000 | < 1000 | 
24 | CC(C)(O)Cc1nnc(Nc2ccc3ncc(-c4cnn(CCCN5CCCC5)c4)cc3n2)s1 [Example 0260] | < 1000 | < 1000 |  |  |  | 
25 | Cc1nnc(Nc2ccc3ncc(Nc4cnn(C)c4)cc3n2)s1 [Example 0184] |  |  |  | 1000 to 10000 | < 1000 | 
26 | CC(C)c1cnnc(Nc2ccc3ncc(-c4cn(C)nc4CO[Si](C)(C)C(C)(C)C)cc3n2)c1 [Example 0393, 7-(3-(((tert-butyldimethylsilyl)oxy)methyl)-1-methyl-1H-pyrazol-4-yl)-N-(5-isopropylpyridazin-3-yl)-1,5-naphthyridine-2-amine] | 1000 to 10000 | < 1000 |  |  |  | 
27 | COCCc1nn(C)cc1-c1cnc2ccc(Nc3nnc(C(C)C)s3)nc2c1 [Example 0389, 5-isopropyl-N-(7-(3-(2-methoxyethyl)-1-methyl-1H-pyrazol-4-yl)-1,5-naphthyridin-2-yl)-1,3,4-thiadiazole-2-amine] | < 1000 | < 1000 |  |  |  | 
28 | OCCNc1cnc2ccc(Nc3nnc(C4CCCC4)s3)nc2c1 [Example 0310] | 1000 to 10000 | < 1000 |  |  |  | 
29 | c1cnn(-c2cncc(Nc3cnc4ccc(Nc5nnc(C6CCCC6)s5)nc4c3)c2)c1 [Example 0073] |  |  |  | < 1000 | < 1000 | 
30 | CNc1nnc(Nc2ccc3ncc(-c4cnn(CCN5CCOCC5)c4)cc3n2)s1 [Example 0249, N^2-methyl-N^5-(7-(1-(2-morpholinoethyl)-1H-pyrazol-4-yl)-1,5-naphthyridin-2-yl)-1,3,4-thiadiazole-2,5-diamine] | < 1000 | < 1000 |  |  |  | 
31 | c1nc2ccc(Nc3nnc(CC4CCCC4)s3)nc2cc1-c1cnn(CCCN2CCCC2)c1 [Example 0234] | < 1000 | < 1000 |  |  |  | 
32 | c1ccc(-c2ccc(Nc3cnc4ccc(Nc5nnc(C6CCCC6)s5)nc4c3)cn2)cc1 [Example 0069] |  |  |  | 10000 to 50000 | 1000 to 10000 | 
33 | c1ccc(Nc2cnc3ccc(Nc4nnc(C5CCCC5)s4)nc3c2)nc1 [Example 0206] | 10000 to 50000 | < 1000 |  |  |  | 
34 | COc1ccc(-c2cnc3ccc(Nc4ncc(C)s4)nc3c2)cc1OC [Example 0022, N-(7-(3,4-dimethoxyphenyl)-1,5-naphthyridin-2-yl)-5-methylthiazole-2-amine] |  |  |  | 1000 to 10000 | 10000 to 50000 | 
35 | COc1ccc(-c2cnc3ccc(Nc4nccs4)nc3c2)cc1OC [Example 0023, N-(7-(3,4-dimethoxyphenyl)-1,5-naphthyridin-2-yl)thiazole-2-amine] |  |  |  | 1000 to 10000 | 1000 to 10000 | 
36 | Cc1cnnc(Nc2ccc3ncc(Nc4cncnc4)cc3n2)c1 [Example 0388, N^2-(5-methylpyridazin-3-yl)-N^7-(pyrimidin-5-yl)-1,5-naphthyridine-2,7-diamine] | 1000 to 10000 | < 1000 |  |  |  | 
37 | CC(C)c1nnc(Nc2ccc3nccc(N4CCOCC4)c3n2)s1 [Example 0286, 5-isopropyl-N-(8-morpholino-1,5-naphthyridin-2-yl)-1,3,4-thiadiazole-2-amine] | 1000 to 10000 | 1000 to 10000 |  |  |  | 
38 | C1=C(c2cnc3ccc(Nc4nnc(C5CCCC5)s4)nc3c2)CCNC1 [Example 0330, 5-cyclopentyl-N-(7-(1,2,3,6-tetrahydropyridin-4-yl)-1,5-naphthyridin-2-yl)-1,3,4-thiadiazole-2-amine hydrochloride] | 1000 to 10000 | < 1000 |  |  |  | 
39 | CC(C)c1cnnc(Nc2ccc3ncc(-c4cnn(CCc5ccncc5)c4)cc3n2)c1 [Example 0377] | < 1000 | < 1000 |  |  |  | 
40 | CC(C)c1cnnc(Nc2ccc3ncc(-c4cnn(-c5cccnc5)c4)cc3n2)c1 [Example 0398, N-(5-isopropylpyridazin-3-yl)-7-(1-(pyridin-3-yl)-1H-pyrazol-4-yl)-1,5-naphthyridine-2-amine] | < 1000 | < 1000 |  |  |  | 
